In the supplement of paper PMC10307832:

Columns and labels:
Test in all cases: relative viability (nuclei count vs DMSO), 5 days (fraction); higher = more cells survive
[1] = test system: COR-L 105
Method in brief: (§1)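 After 5 days of treatment, lung cancer cells in 1536-well plates were fixed and stained in a single step (final 0.05% Triton X-100, 1% formaldehyde, 1 ug/ml Hoechst) and their nuclei counted on 4× images. Treatment had been applied by pin tool the day after seeding as one drug alone or as a fixed anchor-drug dose with five library-drug doses (not always all listed) in √10 steps. Relative viability is the nuclei count of treated wells divided by that of vehicle wells, and values are medians of duplicate plates.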

[2] = test system: COR-L23
Method in brief: as §1

[3] = test system: HARA
Method in brief: as §1

[4] = test system: HCC-15
Method in brief: as §1

[5] = test system: HOP-62
Method in brief: as §1

[6] = test system: NCI-H1355
Method in brief: as §1

[7] = test system: NCI-H1395
Method in brief: as §1

[8] = test system: NCI-H1734
Method in brief: as §1

[9] = test system: NCI-H1755
Method in brief: as §1

[10] = test system: NCI-H1792
Method in brief: as §1

[11] = test system: NCI-H1793
Method in brief: as §1

[12] = test system: NCI-H1993
Method in brief: as §1

[13] = test system: NCI-H2009
Method in brief: as §1

[14] = test system: NCI-H2170
Method in brief: as §1

[15] = test system: NCI-H2228
Method in brief: as §1

[16] = test system: NCI-H2347
Method in brief: as §1

[17] = test system: NCI-H358
Method in brief: as §1

[18] = test system: NCI-H522
Method in brief: as §1

[19] = test system: NCI-H647
Method in brief: as §1

[20] = test system: NCI-H838
Method in brief: as §1

[21] = test system: SK-MES-1
Method in brief: as §1

[22] = test system: UMC-11
Method in brief: as §1

Cc1sc2c(c1C)C(c1ccc(Cl)cc1)=N[C@@H](CC(=O)OC(C)(C)C)c1nnc(C)n1-2 [JQ1] + CC(=O)c1c(C)c2cnc(Nc3ccc(N4CCNCC4)cn3)nc2n(C2CCCC2)c1=O [Palbociclib] (partner 0.5 µM)
relative viability ([1]; first compound 0.04 µM): 0.384 | relative viability ([1]; first compound 0.1265 µM): 0.429 | relative viability ([1]; first compound 0.4 µM): 0.358 | relative viability ([1]; first compound 1.265 µM): 0.311 | relative viability ([1]; first compound 4 µM): 0.34 | relative viability ([2]; first compound 0.04 µM): 0.336 | relative viability ([2]; first compound 0.1265 µM): 0.193 | relative viability ([2]; first compound 0.4 µM): 0.25 | relative viability ([2]; first compound 1.265 µM): 0.165 | relative viability ([2]; first compound 4 µM): 0.162 | relative viability ([3]; first compound 0.04 µM): 0.224 | relative viability ([3]; first compound 0.1265 µM): 0.193 | relative viability ([3]; first compound 0.4 µM): 0.228 | relative viability ([3]; first compound 1.265 µM): 0.229 | relative viability ([3]; first compound 4 µM): 0.189 | relative viability ([4]; first compound 0.04 µM): 0.648 | relative viability ([4]; first compound 0.1265 µM): 0.585 | relative viability ([4]; first compound 0.4 µM): 0.64 | relative viability ([4]; first compound 1.265 µM): 0.561 | relative viability ([4]; first compound 4 µM): 0.395 | relative viability ([5]; first compound 0.04 µM): 0.424 | relative viability ([5]; first compound 0.1265 µM): 0.323 | relative viability ([5]; first compound 0.4 µM): 0.152 | relative viability ([5]; first compound 1.265 µM): 0.106 | relative viability ([5]; first compound 4 µM): 0.0968 | relative viability ([6]; first compound 0.04 µM): 0.375 | relative viability ([6]; first compound 0.1265 µM): 0.372 | relative viability ([6]; first compound 0.4 µM): 0.323 | relative viability ([6]; first compound 1.265 µM): 0.276 | relative viability ([6]; first compound 4 µM): 0.233 | relative viability ([7]; first compound 0.04 µM): 0.591 | relative viability ([7]; first compound 0.1265 µM): 0.556 | relative viability ([7]; first compound 0.4 µM): 0.602 | relative viability ([7]; first compound 1.265 µM): 0.443 | relative viability ([7]; first compound 4 µM): 0.395 | relative viability ([8]; first compound 0.04 µM): 0.365 | relative viability ([8]; first compound 0.1265 µM): 0.334 | relative viability ([8]; first compound 0.4 µM): 0.313 | relative viability ([8]; first compound 1.265 µM): 0.279 | relative viability ([8]; first compound 4 µM): 0.303 | relative viability ([9]; first compound 0.04 µM): 0.434 | relative viability ([9]; first compound 0.1265 µM): 0.426 | relative viability ([9]; first compound 0.4 µM): 0.416 | relative viability ([9]; first compound 1.265 µM): 0.388 | relative viability ([9]; first compound 4 µM): 0.353 | relative viability ([10]; first compound 0.04 µM): 0.6 | relative viability ([10]; first compound 0.4 µM): 0.538 | relative viability ([10]; first compound 1.265 µM): 0.446 | relative viability ([10]; first compound 4 µM): 0.385 | relative viability ([11]; first compound 0.04 µM): 0.331 | relative viability ([11]; first compound 0.1265 µM): 0.307 | relative viability ([11]; first compound 0.4 µM): 0.274 | relative viability ([11]; first compound 1.265 µM): 0.335 | relative viability ([11]; first compound 4 µM): 0.334 | relative viability ([12]; first compound 0.04 µM): 0.772 | relative viability ([12]; first compound 0.1265 µM): 0.734 | relative viability ([12]; first compound 0.4 µM): 0.613 | relative viability ([12]; first compound 1.265 µM): 0.613 | relative viability ([12]; first compound 4 µM): 0.714 | relative viability ([13]; first compound 0.04 µM): 0.181 | relative viability ([13]; first compound 0.1265 µM): 0.137 | relative viability ([13]; first compound 0.4 µM): 0.199 | relative viability ([13]; first compound 1.265 µM): 0.158 | relative viability ([13]; first compound 4 µM): 0.156 | relative viability ([14]; first compound 0.04 µM): 0.342 | relative viability ([14]; first compound 0.1265 µM): 0.353 | relative viability ([14]; first compound 0.4 µM): 0.267 | relative viability ([14]; first compound 1.265 µM): 0.178 | relative viability ([14]; first compound 4 µM): 0.185 | relative viability ([15]; first compound 0.04 µM): 0.657 | relative viability ([15]; first compound 0.1265 µM): 0.704 | relative viability ([15]; first compound 0.4 µM): 0.641 | relative viability ([15]; first compound 1.265 µM): 0.293 | relative viability ([15]; first compound 4 µM): 0.379 | relative viability ([16]; first compound 0.04 µM): 0.446 | relative viability ([16]; first compound 0.1265 µM): 0.393 | relative viability ([16]; first compound 0.4 µM): 0.385 | relative viability ([16]; first compound 1.265 µM): 0.327 | relative viability ([16]; first compound 4 µM): 0.32 | relative viability ([17]; first compound 0.04 µM): 0.168 | relative viability ([17]; first compound 0.1265 µM): 0.163 | relative viability ([17]; first compound 0.4 µM): 0.153 | relative viability ([17]; first compound 1.265 µM): 0.145 | relative viability ([17]; first compound 4 µM): 0.155 | relative viability ([18]; first compound 0.04 µM): 1.04 | relative viability ([18]; first compound 0.1265 µM): 0.881 | relative viability ([18]; first compound 0.4 µM): 0.697 | relative viability ([18]; first compound 1.265 µM): 0.478 | relative viability ([18]; first compound 4 µM): 0.39 | relative viability ([19]; first compound 0.04 µM): 0.372 | relative viability ([19]; first compound 0.1265 µM): 0.231 | relative viability ([19]; first compound 0.4 µM): 0.13 | relative viability ([19]; first compound 1.265 µM): 0.113 | relative viability ([19]; first compound 4 µM): 0.0792 | relative viability ([20]; first compound 0.04 µM): 0.205 | relative viability ([20]; first compound 0.1265 µM): 0.194 | relative viability ([20]; first compound 0.4 µM): 0.167 | relative viability ([20]; first compound 1.265 µM): 0.164 | relative viability ([20]; first compound 4 µM): 0.162 | relative viability ([21]; first compound 0.04 µM): 0.295 | relative viability ([21]; first compound 0.1265 µM): 0.264 | relative viability ([21]; first compound 0.4 µM): 0.234 | relative viability ([21]; first compound 1.265 µM): 0.213 | relative viability ([21]; first compound 4 µM): 0.23 | relative viability ([22]; first compound 0.04 µM): 0.292 | relative viability ([22]; first compound 0.1265 µM): 0.226 | relative viability ([22]; first compound 0.4 µM): 0.227 | relative viability ([22]; first compound 1.265 µM): 0.257 | relative viability ([22]; first compound 4 µM): 0.184
